Experimental data as given in US7271165B2, “Rifamycin analogs and uses thereof” (priority 2003, dated 2007).
In brackets after ≈: the same amount, converted by molar mass.

What was measured:
[1] = tested on: E coli; assay: MIC assay, E coli; assay type: cell-based
[2] = tested on: E. faecalis; assay: MIC assay, E. faecalis; assay type: cell-based, Enterococcus faecalis
[3] = tested on: S. aureus; assay: MIC assay, S. aureus; assay type: cell-based, Staphylococcus aureus
[4] = tested on: H. flu; assay type: cell-based, H. influenza; conditions: H. flu
[5] = tested on: S. pneumo.; assay: MIC assay, S. pneumo.; assay type: cell-based, Streptococcus pneumoniae

Compound | MIC (μg/mL) E coli [1] [µg/mL] | MIC (μg/mL) E. faecalis [2] [µg/mL] | MIC (μg/mL) S. aureus [3] [µg/mL] | MIC (μg/mL) H. flu [4] [µg/mL] | MIC (μg/mL) S. pneumo. [5] [µg/mL]
COC1C=COC2(C)Oc3c(C)c(O)c4c(=O)c(c5oc6cc(N7CCC(NS(=O)(=O)C(F)(F)F)CC7)cc(O)c6nc-5c4c3C2=O)NC(=O)C(C)=CC=CC(C)C(O)C(C)C(O)C(C)C(O)C1C (stereo not drawn) [Compound 38] | >8 | 8 (≈ 8090 nM) | 0.12 (≈ 121 nM) | 0.25 (≈ 253 nM) | 0.015 (≈ 15.2 nM)
CCCC(=O)NC1CCN(c2cc(O)c3nc4c5c6c7c(C)c(O)c5c(=O)c(c-4oc3c2)NC(=O)C(C)=CC=CC(C)C(O)C(C)C(O)C(C)C(O)C(C)C(OC)C=COC(C)(O7)C6=O)CC1 (stereo not drawn) [Compound 36, 25-O-deacetyl-3′-hydroxy-5′-[4-butanamide-1-piperidinyl]benzoxazinorifamycin] | >8 | 2 (≈ 2160 nM) | 0.004 (≈ 4.31 nM) | 0.25 (≈ 270 nM) | 0.00003 (≈ 0.0324 nM)
CO[C@H]1/C=C/O[C@@]2(C)Oc3c(C)c(O)c4c(=O)c(c5oc6cc(N7C[C@@H]8CCCN[C@@H]8C7)cc(O)c6nc-5c4c3C2=O)NC(=O)/C(C)=C\C=C\[C@H](C)[C@H](O)[C@@H](C)[C@@H](O)[C@@H](C)[C@H](O)[C@@H]1C [Compound 7, 25-O-deacetyl-3′-hydroxy-5′-[(4aS,7aS)-octahydro-6H-pyrrolo[3,4-b]pyridin-6-yl]benzoxazinorifamycin] | >8 | 4 (≈ 4530 nM) | 0.12 (≈ 136 nM) | 4 (≈ 4530 nM) | 0.004 (≈ 4.53 nM)
COC1C=COC2(C)Oc3c(C)c(O)c4c(=O)c(c5oc6cc(N7CCN(CCO)CC7)cc(O)c6nc-5c4c3C2=O)NC(=O)C(C)=CC=CC(C)C(O)C(C)C(O)C(C)C(O)C1C (stereo not drawn) [Compound 98] | 8 (≈ 9020 nM) | 0.12 (≈ 135 nM) | 0.008 (≈ 9.02 nM) | 0.25 (≈ 282 nM) | 0.0005 (≈ 0.564 nM)
COC1C=COC2(C)Oc3c(C)c(O)c4c(=O)c(c5oc6cc(N7CCC(C)(NC(C)=O)CC7)cc(O)c6nc-5c4c3C2=O)NC(=O)C(C)=CC=CC(C)C(O)C(C)C(O)C(C)C(OC(C)=O)C1C (stereo not drawn) [Compound 72, 3′-hydroxy-5′-[4-methyl-4-acetylamino-1-piperidinyl]benzoxazinorifamycin] | >8 | 2 (≈ 2090 nM) | 0.008 (≈ 8.38 nM) | 0.5 (≈ 524 nM) | 0.00025 (≈ 0.262 nM)
CO[C@H]1/C=C/O[C@@]2(C)Oc3c(C)c(O)c4c(=O)c(c5oc6cc(N7CC8CCC(C7)N8)cc(O)c6nc-5c4c3C2=O)NC(=O)/C(C)=C\C=C\[C@H](C)[C@H](O)[C@@H](C)[C@@H](O)[C@@H](C)[C@H](OC(C)=O)[C@@H]1C [Compound 10, 3′-hydroxy-5′-(3,8-diazabicyclo[3.2.1]octan-3-yl)benzoxazinorifamycin] | >8 | 1 (≈ 1100 nM) | 0.008 (≈ 8.78 nM) | 2 (≈ 2200 nM) | 0.00012 (≈ 0.132 nM)
COC1C=COC2(C)Oc3c(C)c(O)c4c(=O)c(c5oc6cc(N7CCC(NC(=O)SC)CC7)cc(O)c6nc-5c4c3C2=O)NC(=O)C(C)=CC=CC(C)C(O)C(C)C(O)C(C)C(OC(C)=O)C1C (stereo not drawn) [Compound 45, 3′-hydroxy-5′-[4-S-methylthiocarbamyl-1-piperidinyl]benzoxazinorifamycin] | 8 (≈ 8220 nM) | 4 (≈ 4110 nM) | 0.015 (≈ 15.4 nM) | 0.5 (≈ 514 nM) | 0.001 (≈ 1.03 nM)
CCOC(=O)C1CCN(c2cc(O)c3nc4c5c6c7c(C)c(O)c5c(=O)c(c-4oc3c2)NC(=O)/C(C)=C\C=C\[C@H](C)[C@H](O)[C@@H](C)[C@@H](O)[C@@H](C)[C@H](O)[C@H](C)[C@@H](OC)/C=C/O[C@@](C)(O7)C6=O)CC1 [Compound 110] | >8 | 0.5 (≈ 547 nM) | 0.004 (≈ 4.38 nM) | 0.12 (≈ 131 nM) | 0.008 (≈ 8.75 nM)
CCOc1c(N2CCN(CCOC)CC2)cc(N2CCN(CCOC)CC2)c2nc3c4c5c6c(C)c(O)c4c(=O)c(c-3oc12)NC(=O)C(C)=CC=CC(C)C(O)C(C)C(O)C(C)C(O)C(C)C(OC)C=COC(C)(O6)C5=O (stereo not drawn) [Compound 92] | >8 | 8 (≈ 7470 nM) | 0.12 (≈ 112 nM) | 2 (≈ 1870 nM) | 0.001 (≈ 0.933 nM)
